The values below are quoted from earlier work in patent publication US6756056B2, “Treatment of Parkinson's disease and related disorders by novel formulations of the combination carbidopa-levodopa” (priority 1997, dated 2004).

The conditions of the data set: doses of 400 mg per day.

As to `C[C@@](Cc1ccc(O)c(O)c1)(NN)C(=O)O` [carbidopa], the Adverse effects entry is on record as “apparently devoid of adverse effects”.
